Laboratory results published in paper PMC2362861, “Potent interaction of flavopiridol with MRP1” (British Journal of Cancer, 1999).
Read-outs that look alike come from different tables or passages of the source.

How the values were obtained:
GLC4 cells = experiment: Steady-state cellular [3H]daunorubicin accumulation in GLC4 cells; format: cell-based, human; conditions: for Accumulation of daunorubicin, mean percentages of control (set at 100%): GLC4, (iso)flavonoid 50 µM (μM), 0.5 M DNR, 75 min; for Effect on accumulation of DNR in GLC4 cells: 50 µM (μM)
GLC4/ADR cells = experiment: Steady-state cellular [3H]daunorubicin accumulation in GLC4/ADR cells; format: cell-based, human; conditions: for Effect on accumulation of DNR in GLC4/ADR cells: 50 µM (μM); for Accumulation of daunorubicin, mean percentages of control (set at 100%): (iso)flavonoid 50 µM (μM), 0.5 M DNR, 75 min
MRP1 ATPase activity = biological target: T1, MRP1 ATPase activity (Homo sapiens, UniProt P33527); experiment: ATPase activity of GLC4/ADR plasma membranes (colourimetric inorganic phosphate); format: biochemical; conditions: for Induction of ATPase activity of GLC4/ADR membranes in the concentration range tested: glycosylated (iso)flavonoids, Figure 4
T1 construct: plasma membrane vesicles prepared from the MRP1 overexpressing cell line GLC4/ADR; endogenous in cells; host or cells: GLC4/ADR (adriamycin-selected human small-cell lung cancer subline); plasma membrane vesicles
Description: One form of cellular resistance, directed against a wide spectrum of natural agents, is referred to as multidrug resistance (MDR). […] The ATP-dependent transport of anticancer drugs out of tumour cells that express MDR proteins may at least theoretically lead to impaired treatment outcome of patients. […] 1-Chloro-2,4-dinitrobenzene (CDNB) was from Sigma (St Louis, MO, USA). […] The isoflavonoid genis- tein was from ICN Biomedicals (Zoetermeer, The Netherlands). […] The (iso)flavonoids were dissolved as a stock solution of 40 mM in dimethyl sulphoxide (DMSO; Across Chimica, Belgium) and stored at -20C. Before experiments, 1:1 dilutions were made in ethanol, followed by a dilution in ethanol/water (1: 3; v/v) to the appropriate concentrations. The maximal concentration of DMSO and ethanol, which was also added to the controls, was 0.5% (v/v). Membrane filters OE67 were from Schleicher and Schuell (Dassel, Germany). Doxorubicin hydrochloride was from Laboratoire Roger Bellon (France). […] S1(MRP1) cells were cultured in the presence of G418 until 2-10 days before experiments. […] Cells were harvested by centrifugation (275 g, 5 min) and washed twice in phosphate-buffered saline. Subsequently, the cells were incubated in 100 mM potassium chloride (KCl), 5 mM magnesium chloride (MgCl2 ), 1 mM phenylmethylsulphonyl fluoride and 50 mM HEPES-KOH (pH 7.4) for 1 h at 0C, in order to allow the cells to swell. Then the cells were ultrasonicated at 20% of the maximum power of an MSE sonicator (Soniprep 150) for three bursts of 15 s. The suspension was centrifuged at 1500 g for 10 min. […] After centrifugation at 100 000 g for 60 min the interface was removed and washed in 100 mM KC1-50 mM HEPES-5 mM MgCl2 buffer (pH 7.4). The final membrane preparations were stored at -80C at a protein concentration of ~ 4 mg ml-1 . […] Vesicles were incubated in KCl-HEPES buffer (pH 7.4) at 37C (protein concentration ~ 0.25 mg ml-1 ), in the presence of 10 mM MgCl2 with or without 1 mM ATP and tritium-labelled DNP-SG. The reaction was stopped by adding ice-cold KCl-HEPES buffer. After rapid filtration, the filters were washed twice with KCl-HEPES buffer. The radioactivity on the filters was measured by liquid scintillation counting. […] Plasma membranes were incubated for 1 h in KCl-HEPES buffer (pH 7.4) at 37C, in the presence of 1 mM EGTA, 1 mM sodium azide and 0.1 mM ouabain, with or without 1 mM ATP. […] Plasma membranes from GLC4 cells (black bars) and GLC4 /ADR cells (white bars) were incubated with 10 nM DNP-SG in the absence or presence of the MIB6 antibody (MIB6) (10 g ml-1 ) or an MRP1 control antibody (10 g ml-1 ). […] In short, anti-MRP1 antibodies were tested for their capacity to inhibit DNP-SG transport into GLC4 /ADR inside-out plasma membrane vesicles.

MRP1 = biological target: T2, MRP1 (Homo sapiens, UniProt P33527); experiment: ATP-dependent uptake of DNP-SG into GLC4/ADR plasma membrane vesicles; format: biochemical; conditions: using 100 nM DNP-SG
T2 construct: using MRP1-transfected cells and several couples of MRP1 overexpressing cell lines and their parental cell lines; endogenous in cells; host or cells: GLC4, GLC4/ADR, HL60, HL60/ADR and SW1573 (endogenous)
Description: One form of cellular resistance, directed against a wide spectrum of natural agents, is referred to as multidrug resistance (MDR). […] The ATP-dependent transport of anticancer drugs out of tumour cells that express MDR proteins may at least theoretically lead to impaired treatment outcome of patients. […] 1-Chloro-2,4-dinitrobenzene (CDNB) was from Sigma (St Louis, MO, USA). […] The isoflavonoid genis- tein was from ICN Biomedicals (Zoetermeer, The Netherlands). […] The (iso)flavonoids were dissolved as a stock solution of 40 mM in dimethyl sulphoxide (DMSO; Across Chimica, Belgium) and stored at -20C. Before experiments, 1:1 dilutions were made in ethanol, followed by a dilution in ethanol/water (1: 3; v/v) to the appropriate concentrations. The maximal concentration of DMSO and ethanol, which was also added to the controls, was 0.5% (v/v). Membrane filters OE67 were from Schleicher and Schuell (Dassel, Germany). Doxorubicin hydrochloride was from Laboratoire Roger Bellon (France). […] S1(MRP1) cells were cultured in the presence of G418 until 2-10 days before experiments. […] Cells were harvested by centrifugation (275 g, 5 min) and washed twice in phosphate-buffered saline. […] The radioactivity on the filters was measured by liquid scintillation counting. […]

GLC4 = experiment: Growth inhibition assay, GLC4; format: cell-based, human; conditions: for IC50: Homo sapiens, read-out: IC50 value
GLC4/ADR = experiment: Growth inhibition assay, GLC4/ADR; format: cell-based, human; conditions: for Resistance of MRP1 overexpressing cells: 72-h exposures; for IC50: Homo sapiens, GLC-4/ADR, 72 h, read-out: IC50 value
SW1573 = experiment: Growth inhibition assay, SW1573; format: cell-based; conditions: Homo sapiens, read-out: IC50 value
S1(MRP) = experiment: Growth inhibition assay, S1(MRP); format: cell-based, human; conditions: Homo sapiens, 72 h; S1(MRP); 3 days drug exposure; read-out: IC50 value
S1(1.1) = experiment: Growth inhibition assay, S1(1.1); format: cell-based; conditions: Homo sapiens, 72 h, read-out: IC50 value

T1 sequence (P33527 whole entry): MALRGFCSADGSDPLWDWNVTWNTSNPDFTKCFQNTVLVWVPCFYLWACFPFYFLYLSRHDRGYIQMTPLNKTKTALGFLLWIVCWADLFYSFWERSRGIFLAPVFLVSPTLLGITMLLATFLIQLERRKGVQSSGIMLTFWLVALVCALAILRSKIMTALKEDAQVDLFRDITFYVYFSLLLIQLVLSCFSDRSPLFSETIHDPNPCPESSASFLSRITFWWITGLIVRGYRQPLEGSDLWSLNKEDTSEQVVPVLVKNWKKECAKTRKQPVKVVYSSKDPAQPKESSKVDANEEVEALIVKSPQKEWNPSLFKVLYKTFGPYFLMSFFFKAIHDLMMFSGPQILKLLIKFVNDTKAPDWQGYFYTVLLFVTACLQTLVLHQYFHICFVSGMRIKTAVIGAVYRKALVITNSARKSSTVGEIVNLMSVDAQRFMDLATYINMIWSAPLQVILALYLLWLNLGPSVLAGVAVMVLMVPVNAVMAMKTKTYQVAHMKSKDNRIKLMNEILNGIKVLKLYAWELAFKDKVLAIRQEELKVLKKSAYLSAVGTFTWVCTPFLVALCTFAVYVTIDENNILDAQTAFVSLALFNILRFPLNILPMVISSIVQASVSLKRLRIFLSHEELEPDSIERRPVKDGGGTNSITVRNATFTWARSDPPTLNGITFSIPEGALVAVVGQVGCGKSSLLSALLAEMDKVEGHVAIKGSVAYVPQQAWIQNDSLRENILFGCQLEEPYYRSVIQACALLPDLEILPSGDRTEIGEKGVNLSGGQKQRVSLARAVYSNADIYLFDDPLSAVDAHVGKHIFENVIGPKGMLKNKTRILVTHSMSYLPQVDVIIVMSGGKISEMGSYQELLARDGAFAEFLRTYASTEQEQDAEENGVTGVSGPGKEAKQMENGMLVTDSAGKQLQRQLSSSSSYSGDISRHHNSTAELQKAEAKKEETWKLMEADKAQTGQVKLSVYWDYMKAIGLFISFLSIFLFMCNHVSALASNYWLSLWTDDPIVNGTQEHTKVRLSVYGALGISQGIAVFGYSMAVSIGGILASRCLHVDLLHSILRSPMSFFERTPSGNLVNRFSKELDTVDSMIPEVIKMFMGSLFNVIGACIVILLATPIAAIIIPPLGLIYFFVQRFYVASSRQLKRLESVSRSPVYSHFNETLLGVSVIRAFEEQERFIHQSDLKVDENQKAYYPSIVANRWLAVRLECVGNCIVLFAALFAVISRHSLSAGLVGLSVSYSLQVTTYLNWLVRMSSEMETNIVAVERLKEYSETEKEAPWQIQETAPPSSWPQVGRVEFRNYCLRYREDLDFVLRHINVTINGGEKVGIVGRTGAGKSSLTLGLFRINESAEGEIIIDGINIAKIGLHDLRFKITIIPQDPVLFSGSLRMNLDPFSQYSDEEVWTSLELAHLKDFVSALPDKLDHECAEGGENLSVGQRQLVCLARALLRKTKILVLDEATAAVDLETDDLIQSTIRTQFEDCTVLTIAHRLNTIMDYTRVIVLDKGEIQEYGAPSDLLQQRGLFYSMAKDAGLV
T2 sequence (P33527 whole entry): as above

O=c1cc(-c2ccc(O)cc2)oc2cc(O)cc(O)c12 [Apigenin, apigenin]
Accumulation of daunorubicin, mean percentages of control (set at 100%) (GLC4 cells): 91%
Effect on accumulation of DNR in GLC4/ADR cells (GLC4/ADR cells): increased the accumulation of DNR

O=c1cc(-c2ccc(O)cc2)oc2cc(O[C@@H]3O[C@H](CO)[C@@H](O)[C@H](O)[C@H]3O)cc(O)c12 [Apigetrin, apigenin-7-glucose]
Induction of ATPase activity of GLC4/ADR membranes in the concentration range tested (MRP1 ATPase activity): did not induce ATPase activity
Effect on accumulation of DNR in GLC4 cells (GLC4 cells): small, but significant decrease
Effect on accumulation of DNR in GLC4/ADR cells (GLC4/ADR cells): did not increase accumulation of DNR
Accumulation of daunorubicin, mean percentages of control (set at 100%) (GLC4/ADR cells; GLC4/ADR): 57%

N[C@@H](CCC(=O)N[C@@H](CSc1ccc([N+](=O)[O-])cc1[N+](=O)[O-])C(=O)NCC(=O)O)C(=O)O [DNP-SG, dinitrophenyl-S-glutathione]
ATP-dependent uptake of DNP-SG into GLC4/ADR vesicles (MRP1): 490 pmol mg protein-1 min-1
Stimulation of basal ATPase activity of GLC4/ADR membranes above the control (MRP1 ATPase activity; 10 M DNP-SG (μM)): 4.5 nmol mg protein-1 min-1
ATPase activity stimulation compared to the control (MRP1 ATPase activity; 10 M DNP-SG (μM), without MIB6): 125%

O=c1c(-c2ccc(O)cc2)coc2cc(O)cc(O)c12 [Genistein, genistein]
ATPase stimulation, % of the control (MRP1 ATPase activity; 50 µM genistein (μM), without MIB6): 108%
Concentrations at which ATPase activity of GLC4/ADR membranes was significantly induced (MRP1 ATPase activity; GLC4/ADR membranes, lowest effective concentration and higher): ≥ 1 µM
Accumulation of daunorubicin, mean percentages of control (set at 100%) (GLC4 cells): 107%
Effect on accumulation of DNR in GLC4/ADR cells (GLC4/ADR cells): increased the accumulation of DNR
Difference of DNR accumulation from control (P < 0.05) (GLC4/ADR cells; GLC4/ADR, 10 M genistein (μM), Figure 6): gave a significant difference
Modulation of cellular accumulation of DNR at low micromolar concentrations (GLC4/ADR cells; GLC4/ADR, Figure 6): did not modulate
IC50 (GLC4; 72 h, GLC4, 3 days drug exposure): 12 µM
Resistance of MRP1 overexpressing cells (GLC4/ADR): No resistance
IC50 (GLC4/ADR; GLC4/ADR, 3 days drug exposure): 13 µM
IC50 (SW1573; 72 h, SW1573, 3 days drug exposure): 10 µM
IC50 (S1(MRP)): 9 µM
IC50 (S1(1.1); S1(1.1), 3 days drug exposure): 9 µM

O=c1c(-c2ccc(O)cc2)coc2cc(O[C@@H]3O[C@H](CO)[C@@H](O)[C@H](O)[C@H]3O)cc(O)c12 [Genistin, genistein-7-glucose]
Induction of ATPase activity of GLC4/ADR membranes in the concentration range tested (MRP1 ATPase activity): did not induce ATPase activity
Accumulation of daunorubicin, mean percentages of control (set at 100%) (GLC4 cells): 101%
Effect on accumulation of DNR in GLC4/ADR cells (GLC4/ADR cells): did not increase accumulation of DNR
Accumulation of daunorubicin, mean percentages of control (set at 100%) (GLC4/ADR cells; GLC4/ADR): 96%

O=c1c(O)c(-c2ccc(O)cc2)oc2cc(O)cc(O)c12 [Kaempferol, kaempferol]
Accumulation of daunorubicin, mean percentages of control (set at 100%) (GLC4 cells): 92%
Effect on accumulation of DNR in GLC4/ADR cells (GLC4/ADR cells): increased the accumulation of DNR
Accumulation of daunorubicin, mean percentages of control (set at 100%) (GLC4/ADR cells; GLC4/ADR): 190%
IC50 (GLC4; GLC4, 72 h): 25 µM
Resistance of MRP1 overexpressing cells (GLC4/ADR): No resistance
IC50 (GLC4/ADR): 11 µM
IC50 (SW1573; SW1573, 72 h): 29 µM
IC50 (S1(1.1)): 43 µM

O=c1c(O[C@@H]2O[C@H](CO)[C@@H](O)[C@H](O)[C@H]2O)c(-c2ccc(O)cc2)oc2cc(O)cc(O)c12 [Kaempferol-3 glucose, kaempferol-3-glucose]
Effect on accumulation of DNR in GLC4 cells (GLC4 cells): small, but significant decrease
Effect on accumulation of DNR in GLC4/ADR cells (GLC4/ADR cells): did not increase accumulation of DNR

CCCN(CCC)S(=O)(=O)c1ccc(C(=O)O)cc1 [probenecid]
Effect of simultaneous incubation with probenecid on the cytotoxic effect of flavopiridol (GLC4; GLC4, probenecid 0.5 mM, data not shown): did not alter
Effect of simultaneous incubation with probenecid on the cytotoxic effect of flavopiridol (GLC4/ADR; GLC4/ADR, probenecid 0.5 mM, data not shown): did not alter
